The target of this assay is T1, human vasopressin V1a receptor subtype (Homo sapiens, UniProt P37288).
T1 construct: host or cells: CHO cells (pZeoSV vector for the Thibonnier line)
Description: Vasopressin binding in Chinese Hamster Ovary cell membranes expressing human vasopressin V1a subtype receptors. Conditions: 100 nM, CHO cell membranes, [3H]Manning ligand, values without parentheses. An outline of the steps: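 Membranes from CHO cells expressing human V1a receptor were incubated with [3H]Manning ligand (added as 20 μL of 8 nM) in pH 7.4 Tris buffer with MgCl2, BSA and protease inhibitors, 60 min at room temperature. Bound radioactivity was counted after filtration; values are percent inhibition at a stated concentration or IC50.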

In general, inhibition refers to the drop in the measured response relative to a control, in per cent.

T1 sequence (P37288 whole entry): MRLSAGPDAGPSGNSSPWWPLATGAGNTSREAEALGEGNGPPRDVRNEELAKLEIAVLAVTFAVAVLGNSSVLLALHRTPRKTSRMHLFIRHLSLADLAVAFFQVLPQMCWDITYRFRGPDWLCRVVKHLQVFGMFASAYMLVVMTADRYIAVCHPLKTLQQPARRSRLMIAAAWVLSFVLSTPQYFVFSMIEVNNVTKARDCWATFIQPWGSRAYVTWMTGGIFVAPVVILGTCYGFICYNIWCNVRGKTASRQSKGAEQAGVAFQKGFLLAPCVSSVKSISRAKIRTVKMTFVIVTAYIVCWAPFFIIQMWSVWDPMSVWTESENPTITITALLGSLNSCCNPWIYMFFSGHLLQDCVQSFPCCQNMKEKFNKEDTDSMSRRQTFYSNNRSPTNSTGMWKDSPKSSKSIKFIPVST

On to `Cc1ccccc1-c1ccc(C(=O)N2Cc3ccc(C(=O)N4CCCN(C)CC4)n3Cc3ccccc32)cc1` [Example 65, {10-[(2′-Methyl[1,1′-biphenyl]-4-yl)carbonyl]-10,11-dihydro-5H-pyrrolo[2,1-c][1,4]benzodiazepin-3-yl}(4-methyl-1,4-diazepan-1-yl)methanone], for which the inhibition at 0.1 µM is 40%.

`COc1cc(C(=O)N2Cc3ccc(C(=O)N4CCN(CCN5CCOCC5)CC4)n3Cc3ccccc32)ccc1-n1c(C)ccc1C` [Example 317, {10-[4-(2,5-Dimethyl-1H-pyrrol-1-yl)-3-methoxybenzoyl]-10,11-dihydro-5H-pyrrolo[2,1-c][1,4]benzodiazepin-3-yl}{4-[2-(4-morpholinyl)ethyl]-1-piperazinyl}methanone]: the inhibition at 0.1 µM turned out to be 10%. Still for that read-out and setting: the value for `COc1cc(C(=O)N2Cc3ccc(C(=O)N4CCN(CCCN(C)C)CC4)n3Cc3ccccc32)ccc1-c1cccc2ccccc12` [Example 253, {4-[3-(Dimethylamino)propyl]-1-piperazinyl}{10-[3-methoxy-4-(1-naphthyl)benzoyl]-10,11-dihydro-5H-pyrrolo[2,1-c][1,4]benzodiazepin-3-yl}methanone] was 16%; that for `COc1ccccc1-c1ccc(C(=O)N2Cc3ccc(C(=O)n4ccnc4)n3Cc3ccccc32)cc1C` [Example 292, 1H-Imidazol-1-yl-{10-[(2′-methoxy-2-methyl[1,1′-biphenyl]-4-yl)carbonyl]-10,11-dihydro-5H-pyrrolo[2,1-c][1,4]benzodiazepin-3-yl}methanone] was 6%; that for `Cc1ccccc1-c1ccc(C(=O)N2Cc3ccc(C(=O)N4CCN(CCCN(C)C)CC4)n3Cc3ccccc32)cc1` [Example 249, {4-[3-(Dimethylamino)propyl]-1-piperazinyl}{10-[(2′-methyl[1,1′-biphenyl]-4-yl)carbonyl]-10,11-dihydro-5H-pyrrolo[2,1-c][1,4]benzodiazepin-3-yl}methanone] was 12%. On to `Cc1cc(C(=O)N2Cc3ccc(C(=O)N4CCN(CCCN(C)C)CC4)n3Cc3ccccc32)ccc1-c1ccccc1C(F)(F)F` [Example 257, {10-[(2-Methyl-2′-trifluoromethyl-[1,1′-biphenyl]-4-yl)carbonyl]-10,11-dihydro-5H-pyrrolo[2,1-c][1,4]benzodiazepin-3-yl}{4-[3-(dimethylamino)propyl]-1-piperazinyl}-methanone], for which the “V1a % inhibition @ 100 nM” value (0.1 µM) amounted to 10%.

For `Cc1ccccc1-c1ccc(C(=O)N2Cc3ccc(C(=O)N4CCN(C)CC4)n3Cc3ccccc32)cc1C` [Example 50, {10-[(2,2′-Dimethyl[1,1′-biphenyl]-4-yl)carbonyl]-10,11-dihydro-5H-pyrrolo[2,1-c][1,4]benzodiazepin-3-yl}(4-methyl-1-piperazinyl)methanone], the inhibition at 0.1 µM is 40%. Still for that read-out and setting: in the case of `COc1ccccc1-c1ccc(C(=O)N2Cc3ccc(C(=O)N[C@@H](CCCCNC(=O)OC(C)(C)C)C(N)=O)n3Cc3ccccc32)cc1OC` [Example 303, tert-Butyl (5S)-6-amino-5-[({10-[(2,2′-dimethoxy[1,1′-biphenyl]-4-yl)carbonyl]-10,11-dihydro-5H-pyrrolo[2,1-c][1,4]benzodiazepin-3-yl}carbonyl)amino]-6-oxohexylcarbamate] it was -4%; in that of `COc1cccc(-c2ccc(C(=O)N3Cc4ccc(C(=O)N5CCCN(C)CC5)n4Cc4ccccc43)cc2OC)c1` [Example 70, {10-[(2,3′-Dimethoxy[1,1′-biphenyl]-4-yl)carbonyl]-10,11-dihydro-5H-pyrrolo[2,1-c][1,4]benzodiazepin-3-yl}(4-methyl-1,4-diazepan-1-yl)methanone], 19%.

On to `COc1ccccc1-c1ccc(C(=O)N2Cc3ccc(C(=O)N[C@@H]4CN5CCC4CC5)n3Cc3ccccc32)cc1OC` [Example 300, N-[(3S)-1-Azabicyclo[2.2.2]oct-3-yl]-10-[(2,2′-dimethoxy[1,1′-biphenyl]-4-yl)carbonyl]-10,11-dihydro-5H-pyrrolo[2,1-c][1,4]benzodiazepine-3-carboxamide], for which the inhibition at 0.1 µM is -2%. Still for that read-out and setting: in the case of `COc1ccccc1-c1ccc(C(=O)N2Cc3ccc(C(=O)N[C@H]4CN5CCC4CC5)n3Cc3ccccc32)cc1` [Example 296, N-[(3R)-1-Azabicyclo[2.2.2]oct-3-yl]-10-[(2′-methoxy[1,1′-biphenyl]-4-yl)carbonyl]-10,11-dihydro-5H-pyrrolo[2,1-c][1,4]benzodiazepine-3-carboxamide] it was 31%; in that of `COc1cc(C(=O)N2Cc3ccc(C(=O)N4CCN(C(C)C)CC4)n3Cc3ccccc32)ccc1-n1c(C)ccc1C` [Example 319, {10-[4-(2,5-Dimethyl-1H-pyrrol-1-yl)-3-methoxybenzoyl]-10,11-dihydro-5H-pyrrolo[2,1-c][1,4]benzodiazepin-3-yl}(4-isopropyl-1-piperazinyl)methanone], 9%; in that of `COc1cc(-c2ccccc2C)c(Cl)cc1C(=O)N1Cc2ccc(C(=O)N[C@@H](CCCCNC(=O)OC(C)(C)C)C(N)=O)n2Cc2ccccc21` [Example 304, tert-Butyl (5S)-6-amino-5-[({10-[(6-chloro-3-methoxy-2′-methyl[1,1′-biphenyl]-4-yl)carbonyl]-10,11-dihydro-5H-pyrrolo[2,1-c][1,4]benzodiazepin-3-yl}carbonyl)amino]-6-oxohexylcarbamate], -7%. Same read-out and setting: in the case of `COc1cccc(-c2ccc(C(=O)N3Cc4ccc(C(=O)N5CCCN(C)CC5)n4Cc4ccccc43)cc2C)c1` [Example 64, {10-[(3′-Methoxy-2-methyl[1,1′-biphenyl]-4-yl)carbonyl]-10,11-dihydro-5H-pyrrolo[2,1-c][1,4]benzodiazepin-3-yl}(4-methyl-1,4-diazepan-1-yl)methanone] it was 13%; in that of `COc1cc(C(=O)N2Cc3ccc(C(=O)N4CCCN(C)CC4)n3Cc3ccccc32)ccc1-c1ccccc1C` [Example 66, {10-[(2-Methoxy-2′-methyl[1,1′-biphenyl]-4-yl)carbonyl]-10,11-dihydro-5H-pyrrolo[2,1-c][1,4]benzodiazepin-3-yl}(4-methyl-1,4-diazepan-1-yl)methanone], 52%; in that of `COc1ccccc1-c1ccc(C(=O)N2Cc3ccc(C(=O)N[C@@H](Cc4c[nH]cn4)C(N)=O)n3Cc3ccccc32)cc1C` [Example 288, N-[(1S)-2-Amino-1-(1H-imidazol-4-ylmethyl)-2-oxoethyl]-10-[(2′-methoxy-2-methyl[1,1′-biphenyl]4-yl)carbonyl]-10,11-dihydro-5H-pyrrolo[2,1-c][1,4]benzodiazepine-3-carboxamide], 24%. Still for that read-out and setting: the value for `Cc1cc(C(=O)N2Cc3cccn3Cc3ncccc32)ccc1-c1ccccc1C(F)(F)F` [Example 323F, (2-Methyl-2′-trifluoromethyl-[1,1′-biphenyl]-4-yl)-(4H,10H-3a,5,9-triaza-benzo[f]azulen-9-yl)-methanone] was 2%; that for `COc1ccccc1-c1ccc(C(=O)N2Cc3ccc(C(=O)N[C@@H]4CN5CCC4CC5)n3Cc3ccccc32)cc1C` [Example 295, N-[(3S)-1-Azabicyclo[2.2.2]oct-3-yl]-10-[(2′-methoxy-2-methyl[1,1′-biphenyl]-4-yl)carbonyl]-10,11-dihydro-5H-pyrrolo[2,1-c][1,4]benzodiazepine-3-carboxamide] was 6%; that for `COc1cc(C(=O)N2Cc3ccc(C(=O)NCCN4CCCCC4)n3Cc3ccccc32)ccc1-n1c(C)ccc1C` [Example 314, 10-[4-(2,5-Dimethyl-1H-pyrrol-1-yl)-3-methoxybenzoyl]-N-[2-(1-piperidinyl)ethyl]-10,11-dihydro-5H-pyrrolo[2,1-c][1,4]benzodiazepine-3-carboxamide] was 6%. Consider `COc1cccc(-c2cc(OC)c(C(=O)N3Cc4ccc(C(=O)N[C@@H](CCCCNC(=O)OC(C)(C)C)C(N)=O)n4Cc4ccccc43)cc2Cl)c1` [Example 302, tert-Butyl (5S)-6-amino-5-[({10-[(6-chloro-3,3′-dimethoxy[1,1′-biphenyl]-4-yl)carbonyl]-10,11-dihydro-5H-pyrrolo[2,1-c][1,4]benzodiazepin-3-yl}carbonyl)amino]-6-oxohexylcarbamate], for which the inhibition at 0.1 µM was -15%. Same read-out and setting: in the case of `COc1cc(C(=O)N2Cc3ccc(C(=O)N(C)CCN(C)C)n3Cc3ccccc32)ccc1-n1c(C)ccc1C` [Example 309, N-[2-(Dimethylamino)ethyl]-10-[4-(2,5-dimethyl-1H-pyrrol-1-yl)-3-methoxybenzoyl]-N-methyl-10,11-dihydro-5H-pyrrolo[2,1-c][1,4]benzodiazepine-3-carboxamide] it was 11%; in that of `COc1cc(-c2ccccc2C)c(Cl)cc1C(=O)N1Cc2ccc(C(=O)N3CCN(CCCN(C)C)CC3)n2Cc2ccccc21` [Example 251, {10-[(6-Chloro-3-methoxy-2′-methyl[1,1′-biphenyl]-4-yl)carbonyl]-10,11-dihydro-5H-pyrrolo[2,1-c][1,4]benzodiazepin-3-yl}{4-[3-(dimethylamino)propyl]-1-piperazinyl}methanone], 6%.

Consider `COc1ccccc1-c1ccc(C(=O)N2Cc3ccc(C(=O)NCCCN(C)C)n3Cc3ccccc32)cc1C` [Example 72, N-[3-(Dimethylamino)propyl]-10-[(2′-methoxy-2-methyl[1,1′-biphenyl]-4-yl)carbonyl]-10,11-dihydro-5H-pyrrolo[2,1-c][1,4]benzodiazepine-3-carboxamide], for which the inhibition at 0.1 µM was 8%. `COc1cc(C(=O)N2Cc3ccc(C(=O)NCCC4CCCN4C)n3Cc3ccccc32)ccc1-n1c(C)ccc1C` (stereo not drawn) [Example 315, 10-[4-(2,5-Dimethyl-1H-pyrrol-1-yl)-3-methoxybenzoyl]-N-[2-(1-methyl-2-pyrrolidinyl)ethyl]-10,11-dihydro-5H-pyrrolo[2,1-c][1,4]benzodiazepine-3-carboxamide]: the inhibition at 0.1 µM amounted to 7%.

These data come from patent US7109193B2, “Tricyclic diazepines tocolytic oxytocin receptor antagonists” (Wyeth, priority 2001, dated 2006).
